Assay results reported in patent US20050085447A1, “Pyrido[3,4-d]pyrimidine derivatives as matrix metalloproteinase-13 inhibitors” (Warner-Lambert Company LLC, priority 2003, published 2005).

Columns and labels:
MMP-13 catalytic domain = MMP-13 catalytic domain (Homo sapiens, UniProt P45452); assay: Thiopeptolide substrate hydrolysis inhibition assay, MMP-13 catalytic domain; assay type: biochemical; conditions: MMP-13 catalytic domain; read-out: MMP-13CD IC50
Text: The methods described below for the inhibition of MMP-13 may also be adapted and used to determine the ability of the compounds of Formula I to inhibit other matrix metalloproteases such as MMP-1, MMP-2, MMP-3, MMP-7, MMP-8, MMP-9, MMP-12, MMP-14, MMP-17, and the like.
Thiopeptolide substrates show virtually no decomposition or hydrolysis at or below neutral pH in the absence of a matrix metalloproteinase enzyme. A typical thiopeptolide substrate commonly utilized for assays is Ac-Pro-Leu-Gly-thioester-Leu-Leu-Gly-OEt. A 100 μL assay mixture will contain 50 mM of N-2-hydroxyethylpiperazine-N′-2-ethanesulfonic acid buffer (“HEPES,” pH 7.0), 10 mM CaCl2, 100 μM thiopeptolide substrate, and 1 mM 5,5′-dithio-bis-(2-nitro-benzoic acid) (DTNB). […] Assays are carried out with and without matrix metalloproteinase inhibitor compounds, and the amount of hydrolysis is compared for a determination of inhibitory activity of the test compounds.

MMP-9 full-length = biological target: T1, MMP-9 full-length (Homo sapiens, UniProt P14780); assay: Thiopeptolide substrate hydrolysis inhibition assay, MMP-9 full-length; assay type: biochemical; conditions: full-length enzyme; read-out: MMP-9FL IC50
T1 construct: MMP-8 full-length, MMP-9 full-length, MMP-12 catalytic domain
Text: The assay methods of Biological Examples 1-4 measure the amount by which a test compound reduces the hydrolysis of a thiopeptolide substrate catalyzed by a matrix metalloproteinase enzyme or catalytic domain thereof. It has been shown previously by Ye Qi-Zhuang, Hupe D., and Johnson L. (Current Medicinal Chemistry, 1996;3:407-418) that inhibitor activity against a catalytic domain of an MMP is predictive of the inhibitor activity against the respective full-length MMP enzyme. The methods described below for the inhibition of MMP-13 may also be adapted and used to determine the ability of the compounds of Formula I to inhibit other matrix metalloproteases such as MMP-1, MMP-2, MMP-3, MMP-7, MMP-8, MMP-9, MMP-12, MMP-14, MMP-17, and the like.
Thiopeptolide substrates show virtually no decomposition or hydrolysis at or below neutral pH in the absence of a matrix metalloproteinase enzyme. A typical thiopeptolide substrate commonly utilized for assays is Ac-Pro-Leu-Gly-thioester-Leu-Leu-Gly-OEt. A 100 μL assay mixture will contain 50 mM of N-2-hydroxyethylpiperazine-N′-2-ethanesulfonic acid buffer (“HEPES,” pH 7.0), 10 mM CaCl2, 100 μM thiopeptolide substrate, and 1 mM 5,5′-dithio-bis-(2-nitro-benzoic acid) (DTNB). […] The change in absorbance at 405 nm is monitored on a Thermo Max microplate reader (molecular Devices, Menlo Park, Calif.) at room temperature (22° C.). The calculation of the amount of hydrolysis of the thiopeptolide substrate is based on E412=13600 M^−1 cm^−1 for the DTNB-derived product 3-carboxy-4-nitrothiophenoxide. Assays are carried out with and without matrix metalloproteinase inhibitor compounds, and the amount of hydrolysis is compared for a determination of inhibitory activity of the test compounds.
Test compounds were evaluated at various concentrations in order to determine their respective IC50 values, the micromolar concentration of compound required to cause a 50% inhibition of catalytic activity of the respective enzyme.
Some representative compounds of Formula I have been evaluated for their ability to inhibit MMP-13, MMP-1FL, MMP-3CD, MMP-7FL, MMP-8FL, MMP-9FL, MMP-12CD, MMP-14CD, and/or MMP-17CD, wherein FL means full-length enzyme and CD means a catalytic domain of the full-length enzyme. Test compounds can be evaluated at various concentrations in order to determine their respective IC50 values, the micromolar concentration of compound required to cause a 50% inhibition of the hydrolytic activity of the respective enzyme.
Certain compounds of Formula I have also been assayed with MMP-1 full-length, MMP-3 catalytic domain, MMP-7 full-length, MMP-8 full-length, MMP-9 full-length, MMP-12 catalytic domain, MMP-14 catalytic domain, and MMP-17 catalytic domain. […] In Biological Table 2, the compound example numbers for the Compound Examples are indicated in the column labelled “Ex. No.”

male Wistar rats = assay: Monosodium iodoacetate-induced osteoarthritis in rat model of cartilage damage (MIA Rat); assay type: in vivo; conditions: for inhibition of cartilage erosion (surface area of erosion) versus vehicle control / rats in the treatment group that exhibited no cartilage erosion: 4 weeks
Text: One end result of the induction of osteoarthritis in this model, as determined by histologic analysis, is the development of an osteoarthritic condition within the affected joint, as characterized by the loss of Toluidine blue staining and formation of osteophytes. Associated with the histologic changes is a concentration-dependent degradation of joint cartilage, as evidenced by affects on hind-paw weight distribution of the limb containing the affected joint, the presence of increased amounts of proteoglycan or hydroxyproline in the joint upon biochemical analysis, or histopathological analysis of the osteoarthritic lesions.
In the MIA Rat model on Day 0, the hind-paw weight differentials between the right arthritic joint and the left healthy joint of male Wistar rats (150 g) were determined with an incapacitance tester, model 2KG (Linton Instrumentation, Norfolk, United Kingdom). […] Then the rats were anesthetized with isofluorine, and the right, hind leg knee joint was injected with 1.0 mg of mono-iodoacetate (“MIA”) through the infrapatellar ligament. […] The rats were further administered either the compound of Compound Example 1 or vehicle (in the instant case, water) daily for 14 days or 28 days. The compound of Compound Example 1 was administered at doses of 1, 3, 10, and 30 milligrams per kilogram of rat per day, but invention compounds may be administered at other doses such as, for example, 60 mg/kg/day, 90-mg/kg/day, or 100 mg/kg/day according to the requirements of the compound being studied. It is well within the level of ordinary skill in the pharmaceutical arts to determine a proper dosage of an invention compound in this model.
Generally, an invention compound may be administered in this model by oral administration, but optionally intravenous administration via an osmotic pump could be employed. After 7 and 14 days for a two-week study, or 7, 14, and 28 days for a four-week study, the hind-paw weight distribution may be determined. […] This change in weight distribution was proportional to the degree of joint cartilage damage. Percent inhibition of a change in hind paw joint function was calculated as the percent change in hind-paw weight distribution for treated animals versus control animals. For example, for a two week study,
In the present study the compound of Compound Example 1 was administered perorally, and hind-paw weight differentials were determined at both 2 and 4 weeks. Further, in order to detect the presence of erosion of cartilage in the joints, the animals in the above study were sacrificed at 4 weeks, and the presence or absence of cartilage erosion was determined. The proportion of subjects without hind limb erosions was determined via an Exact Sequential Cochran-Armitage Trend test (SAS® Institute, 1999). The Cochran-Armitage Trend test was employed to determine whether the proportion of positive or “Yes” responders increases or decreases with increasing levels of treatment. For this particular study, it was expected that the number of animals without joint erosions increased with increasing dose.

T1 sequence (P14780 94-707): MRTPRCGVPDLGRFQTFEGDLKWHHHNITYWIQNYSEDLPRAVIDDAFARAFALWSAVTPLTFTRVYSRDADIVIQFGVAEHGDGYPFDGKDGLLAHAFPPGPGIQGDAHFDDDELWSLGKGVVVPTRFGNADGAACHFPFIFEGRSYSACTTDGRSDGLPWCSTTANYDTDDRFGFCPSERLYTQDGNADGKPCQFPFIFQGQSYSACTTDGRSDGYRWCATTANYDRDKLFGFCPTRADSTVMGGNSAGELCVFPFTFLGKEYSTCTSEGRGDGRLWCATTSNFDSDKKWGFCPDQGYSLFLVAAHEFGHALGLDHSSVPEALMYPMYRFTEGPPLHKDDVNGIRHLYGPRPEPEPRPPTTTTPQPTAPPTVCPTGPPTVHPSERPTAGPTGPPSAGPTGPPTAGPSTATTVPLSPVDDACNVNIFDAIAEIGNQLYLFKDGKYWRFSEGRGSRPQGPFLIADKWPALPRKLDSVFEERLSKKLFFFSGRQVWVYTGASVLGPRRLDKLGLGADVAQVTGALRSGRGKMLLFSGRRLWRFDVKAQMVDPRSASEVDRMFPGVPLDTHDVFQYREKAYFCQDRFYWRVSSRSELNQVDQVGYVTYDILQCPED

COc1ccc(CNC(=O)c2cc3c(=O)n(Cc4ccc(C(=O)O)cc4)cnc3cn2)cc1 [Compound Example 1, 4-[6-(4-methoxy-benzylcarbamoyl)-4-oxo-4H-pyrido[3,4-d]pyrimidin-3-ylmethyl]-benzoic acid] was tested, and the IC50 (MMP-13 catalytic domain) was 7.7 nM, the IC50 (MMP-9 full-length) was greater than 100000 nM and the “cartilage erosion versus vehicle control (in words)” value (male Wistar rats; 2 weeks, 1, 3, 10 and 30 mg/kg orally BID) was “inhibited in a dose dependent manner cartilage erosion”. The “inhibition of cartilage erosion (surface area of erosion) versus vehicle control” value (male Wistar rats; 1 mg/kg orally BID) was 40.5%, the “rats in the treatment group that exhibited no cartilage erosion” value (male Wistar rats; 1 mg/kg orally BID) was 5/12 and the “inhibition of cartilage erosion (surface area of erosion) versus vehicle control” value (male Wistar rats; 3 mg/kg orally BID) was 55.6%. For the same compound, the “rats in the treatment group that exhibited no cartilage erosion” value (male Wistar rats; 3 mg/kg orally BID, p<0.05 versus vehicle) was 7/12, the “inhibition of cartilage erosion (surface area of erosion) versus vehicle control” value (male Wistar rats; 10 mg/kg orally BID) was 61.6% and the “rats in the treatment group that exhibited no cartilage erosion” value (male Wistar rats; 10 mg/kg orally BID, p<0.05 versus vehicle) was 7/12. The “inhibition of cartilage erosion (surface area of erosion) versus vehicle control” value (male Wistar rats; 30 mg/kg orally BID) was 32.9% and the “rats in the treatment group that exhibited no cartilage erosion” value (male Wistar rats; 30 mg/kg orally BID) was 4/12.
